Laboratory results as given in patent publication US12457954B2, “Sorghum plants having a mutant polynucleotide encoding the large subunit of mutated acetohydroxyacid synthase protein and increased resistance to herbicides” (Advanta Holdings BV, priority 2012, dated 2025).

What was measured:
Assay type in all cases: in vivo, Sorghum bicolor
[1] = test system: ADV-IMI-R mutant Sorghum line; assay: Field spraying with imidazolinone herbicides, dry matter of aerial tissues, resistant mutant; details: for DM % Control: ADV-IMI-R, 10 days after spraying, mean of 3 experiments; for Response of ADV-IMI-R mutant to herbicide: field spraying, even at a rate of 4×
Procedure: (§1) Subsequently, the effect to herbicide spraying on mutant imidazolinone-resistant plants ADV-IMI-R (original mutation) was compared to the response of endogamic Sorghum line 80237 (Advanta proprietary elite line). To that end, plants were treated on the field with three herbicides belonging to the imidazolinone family: imazethapyr, imazapir, and imazapic. Four different rates were assayed: 1×, 2×, 3×, and 4× for each of the herbicides.
(§2) Ten days after spraying, all plants were assayed for dry matter (DM) in aerial tissues.
(§3) The response of the ADV-IMI-R mutant of the invention was compared to that of endogamic line 80237. […] The disclosed values are the average of three experiments.
(§4) Sorghum line 80237 (Advanta's proprietary elite line) and imidazolinone-resistant ADV-IMI-R mutant of the present invention (original mutation) were sprayed on the field with three herbicides from the group of imidazolinones: imazethapyr, imazapyr, and imazapic. Four different rates were assayed for each of the herbicides: 1×, 2×, 3×, and 4× (being 1× the recommended application rate) (see Table 1 above):
(§5) Field experiments were carried out in Venado Tuerto, and planting took place on Dec. 1, 2010. The herbicide was sprayed 20 days after emergence (stage V6). All treatments were compared to their respective untreated controls. The experimental design consisted of plots divided into 3 replicates (main plot: treatment with herbicide; sub-plots: line).
(§6) Ten days after spraying, all plants were assayed for dry matter (DM) in aerial tissues. Herbicide response was assessed as a DM percentage in aerial tissue of the respective untreated control.
(§7) Thus, the line sensitive to herbicides i for each rate j was expressed as:
(§8) [formula] • DMij % Control is the mean value of 3 experiments for each treatment from each line.

[2] = test system: endogamic Sorghum line 80237; assay: Field spraying with imidazolinone herbicides, dry matter of aerial tissues, wild-type line; details: 10 days after spraying, mean of 3 experiments
Procedure: as §1, §2, §3, §4, §5, §6, §7, §8

[3] = test system: ADV-IMI-R × 90523 F2 progeny; assay: Phenotypic rating of segregating F2 population after spraying with imazethapyr; details: rate 3X
Procedure: Inheritance of resistance to imidazolinones, for example imazethapyr, was assessed in a segregating F2 Sorghum population generated by crossing an imazethapyr susceptible line with the ADV-IMI-R mutant. The F2 plants thus obtained were sprayed with imazethapyr (Pivot®, BASF) at a rate of 3×, 20 days in stage V6 after emergence and phenotypic symptoms were assessed 10 days after treatment.
The correlation between resistance phenotypes and the number of mutant alleles was analyzed using the SNP-SbAHAS marker. To that end, chlorosis and death phenotypes of individual plants from the F2 progeny (ADV-IMI-R×90523) were studied after spraying with imazethapyr. Concomitantly, the genotype of the SNP-SbAHAS marker was studied. The correlation between the molecular marker SNP-SbAHAS and resistance to imazethapyr (measured as a rating of phenotypes) was determined using the Chi-square Independence test.
A targeted crossing was carried out between Sorghum line 90523 (Advanta proprietary elite line, susceptible to imidazolinones) and the imidazolinone-resistant ADV-IMI-R mutant (VT09-9754-48-6-BK selection). The resulting F1 plants were auto-pollinated and F2 seeds were harvested. The F2 seeds were planted in the field in Venado Tuerto, in October 2010. The F2 plants (177 plants) were sprayed with imazethapyr (Pivot®, BASF) at a rate of 3× (where 1× is the rate recommended by the manufacturer for commercial use which is equivalent to 100 ml a.i./ha). Before spraying, leaf tissue from each of the 177 F2 plants from both ADV-IMI-R mutant (VT09-9754-48-6-BK selection) and wild-type line 90523 were collected to isolate genomic DNA, which was resuspended in water at a final concentration of 100 ng/μl for use in genotypic analysis.
Herbicide was sprayed 20 days after emergence (stage V6). The plants were assessed ten days after spraying, and the herbicidal effect was classified into three categories by visually assessed symptoms according to the following phenotypic scoring: • 1=no damage • 2=chlorotic • 3=death
Individual F2 progeny plants obtained by a ADV-IMI-R×90523 crossing were phenotypically classified (no damage, chlorosis and death) after spraying with imazethapyr (using the method of Example 4) and then genotypically classified using the molecular marker SNP-SbAHAS which is specific of the induced mutation in AHAS (using the method described in Example 5).

[4] = 10 days after treatment, 177 F2 plants

| Structure (SMILES) | DM % Control ([1]; rate 1X) | DM % Control ([1]; rate 2X) | DM % Control ([1]; rate 3X) | DM % Control ([1]; rate 4X) | Response of ADV-IMI-R mutant to herbicide [1] | DM % Control ([2]; rate 1X) | DM % Control ([2]; rate 2X) | DM % Control ([2]; rate 3X) | DM % Control ([2]; rate 4X) | Amount of F2 progeny, phenotype Chlorotic (rating 2) [3, 4] | Amount of F2 progeny, phenotype Death (rating 3) [3, 4] | Amount of F2 progeny, phenotype No damage (rating 1) [3, 4] | Amount of F2 individuals, genotype A/G, phenotype Chlorotic ([3]; heterozygous) | Amount of F2 individuals, genotype A/G, phenotype No damage ([3]; heterozygous) | Amount of F2 individuals, genotype A/A, phenotype Chlorotic ([3]; homozygous AHAS mutant) | Amount of F2 individuals, genotype A/A, phenotype No damage ([3]; homozygous AHAS mutant) | Amount of F2 individuals, genotype G/G, phenotype Death ([3]; wild-type homozygous) |
| --- | --- | --- | --- | --- | --- | --- | --- | --- | --- | --- | --- | --- | --- | --- | --- | --- | --- |
| Cc1cnc(C2=NC(=O)C(C)(C(C)C)N2)c(C(=O)O)c1 (centres unmarked) [Imazapic] | 161% | 123% | 244% | 272% | resistant | 22% | 13% | 15% | 28% |  |  |  |  |  |  |  |  |
| CC(C)C1(C)N=C(c2ncccc2C(=O)O)NC1=O (centres unmarked) [Imazapyr] | 139% | 140% | 235% | 191% | resistant | 14% | 21% | 14% | 19% |  |  |  |  |  |  |  |  |
| CCc1cnc(C2=NC(C)(C(C)C)C(=O)N2)c(C(=O)O)c1 (centres unmarked) [Imazethapyr] | 162% | 175% | 263% | 273% | resistant | 17% | 12% | 14% | 23% | 84 | 43 | 50 | 83 | 13 | 1 | 37 | 43 |
